Data published in US20170122958A1, “Enzymes Functional Probes” (University of Dundee, priority 2013, published 2017).
Several values for one entry are separate records, joined by “and”; a condition that tells them apart may be missing. Equal entries are not always repeated.

How the values were obtained:
Assay type in all cases: binding
Brd2(1) = target: T1, Brd2(1) (Homo sapiens, UniProt P25440); experiment: DSF thermal shift; details: wild type
T1 construct: Plasmids of the eight single BET bromodomain constructs Brd2(1), Brd2(2), Brd3(1), Brd3(2); His6 (N); made in house; host or cells: E. coli BL21(DE3)

Brdt(2) = target: T2, Brdt(2) (Homo sapiens, UniProt Q58F21); experiment: DSF thermal shift; details: wild type
T2 construct: Plasmids of the eight single BET bromodomain constructs Brd2(1), Brd2(2), Brd3(1), Brd3(2), Brd4(1), Brd4(2), Brdt(1) and Brdt(2); His6 (N); made in house; host or cells: E. coli BL21(DE3)

Brdt(1) = target: T3, Brdt(1) (Homo sapiens, UniProt Q58F21); experiment: DSF thermal shift; details: wild type
T3 construct: Plasmids of the eight single BET bromodomain constructs Brd2(1), Brd2(2), Brd3(1), Brd3(2), Brd4(1), Brd4(2), Brdt(1) and Brdt(2); His6 (N); made in house; host or cells: E. coli BL21(DE3)

brdt(2)L306A = target: T4, brdt(2)L306A (Homo sapiens, UniProt Q58F21, L306A); experiment: DSF thermal shift; details: mutant
T4 construct: Plasmids of the eight single BET bromodomain constructs Brd2(1), Brd2(2), Brd3(1), Brd3(2), Brd4(1), Brd4(2), Brdt(1) and Brdt(2); His6 (N); made in house; host or cells: E. coli BL21(DE3)

Brd2(2) [1] = target: T5, Brd2(2) (Homo sapiens, UniProt P25440); experiment: DSF thermal shift; details: wild type
T5 construct: Plasmids of the eight single BET bromodomain constructs Brd2(1), Brd2(2), Brd3(1), Brd3(2); His6 (N); made in house; host or cells: E. coli BL21(DE3)

brd3(2)L344A = target: T6, brd3(2)L344A (Homo sapiens, UniProt Q15059, L345A); experiment: DSF thermal shift; details: mutant
T6 construct: Plasmids of the eight single BET bromodomain constructs Brd2(1), Brd2(2), Brd3(1), Brd3(2), Brd4(1), Brd4(2), Brdt(1) and Brdt(2); His6 (N); made in house; host or cells: E. coli BL21(DE3)

Brd3(2) = target: T7, Brd3(2) (Homo sapiens, UniProt Q15059); experiment: DSF thermal shift; details: wild type
T7 construct: Plasmids of the eight single BET bromodomain constructs Brd2(1), Brd2(2), Brd3(1), Brd3(2), Brd4(1), Brd4(2), Brdt(1) and Brdt(2); His6 (N); made in house; host or cells: E. coli BL21(DE3)

Brd3(1) = target: T8, Brd3(1) (Homo sapiens, UniProt Q15059); experiment: DSF thermal shift; details: wild type
T8 construct: Plasmids of the eight single BET bromodomain constructs Brd2(1), Brd2(2), Brd3(1), Brd3(2); His6 (N); made in house; host or cells: E. coli BL21(DE3)

Brd2(2)*(Leu383-Ala) = Brd2(2)*(Leu383-Ala) (Homo sapiens, UniProt P25440, L383A); experiment: ITC reverse titration of protein into compound; set-up: Plasmids of the eight single BET bromodomain constructs Brd2(1), Brd2(2), Brd3(1), Brd3(2), Brd4(1), Brd4(2), Brdt(1) and Brdt(2); His6 (N); made in house; host or cells: E. coli BL21(DE3); details: for ΔH Brd2(2)* (Leu383-Ala) / Kd: ITC 25° C.; for Kd: Kd Brd2(2)* (Leu383-Ala); for Selectivity factor Kd WT/Kd Leu/Ala: 30° C.
Protocol: (§1) ITC experiments were carried out on a ITC200 instrument from MicroCal™ Experiments were conducted at 3 different temperatures 15° C., 25° C. and 30° C., while stirring at 1000 rpm. Buffers of proteins, peptide and compounds were matched to 20 mM HEPES pH 7.5 at 25° C. and 100 mM NaCl. Frozen protein was buffer exchanged as described for the DSF experiments. Each titration comprised 1 initial injection of 0.4 μl lasting 0.8 s, followed by 19 injections of 2 μl lasting 4 s each at 2 min intervals. The initial injection was discarded during data analysis. Standard and reverse titrations were conducted depending on the binding partners.
(§2) Reverse titrations were conducted to test the binding of the known ligands and the novel chemical probes to the wild types and the mutants. Experiments were carried out either at 25° C. or 30° C. […] In cases where the compound was solubilized in dimethyl sulfoxide, DMSO concentration was adjusted to 1% both in the syringe and in the cell.
(§3) All the data was fitted to a single binding site model using the Microcal LLC ITC200 Origin software provided by the manufacturer to yield enthalpies of binding (ΔH) and binding constants (Kas). Further thermodynamic parameters were calculated from these values (changes in entropy ΔS, changes in free energy AG and dissociation constants (Kds)).

Brd2(1)*(Leu110-Ala) = Brd2(1)*(Leu110-Ala) (Homo sapiens, UniProt P25440, L110A); experiment: ITC reverse titration of protein into compound; set-up: Plasmids of the eight single BET bromodomain constructs Brd2(1), Brd2(2), Brd3(1), Brd3(2), Brd4(1), Brd4(2), Brdt(1) and Brdt(2); His6 (N); made in house; host or cells: E. coli BL21(DE3); details: for ΔH Brd2(1)* (Leu110-Ala): ITC 25° C.; for Selectivity factor Kd WT/Kd Leu/Ala: 30° C.
Protocol: as §1, §2, §3

Brd3(1)* (L070A) = target: T9, Brd3(1)* (L070A) (Homo sapiens, UniProt Q15059, L70A); experiment: DSF thermal shift; details: mutant
T9 construct: Plasmids of the eight single BET bromodomain constructs Brd2(1), Brd2(2), Brd3(1), Brd3(2); His6 (N); made in house; host or cells: E. coli BL21(DE3)

brdt(1)L063A = target: T10, brdt(1)L063A (Homo sapiens, UniProt Q58F21, L63A); experiment: DSF thermal shift; details: mutant
T10 construct: Plasmids of the eight single BET bromodomain constructs Brd2(1), Brd2(2), Brd3(1), Brd3(2), Brd4(1), Brd4(2), Brdt(1) and Brdt(2); His6 (N); made in house; host or cells: E. coli BL21(DE3)

Brd2(2) [2] = target: T5, Brd2(2); experiment: ITC reverse titration of protein into compound; details: ITC 25° C.; for Kd: Kd Brd2(2)
Protocol: as §1, §2, §3

T1 sequence (P25440 74-180 limits assumed): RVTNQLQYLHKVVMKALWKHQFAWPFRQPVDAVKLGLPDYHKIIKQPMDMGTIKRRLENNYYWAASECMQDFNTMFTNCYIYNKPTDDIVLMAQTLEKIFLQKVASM
T5 sequence (P25440 344-453 limits assumed): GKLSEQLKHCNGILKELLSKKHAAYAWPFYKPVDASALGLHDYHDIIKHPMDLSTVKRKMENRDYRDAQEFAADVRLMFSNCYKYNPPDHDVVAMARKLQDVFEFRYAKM
Sequence of Brd2(1)*(Leu110-Ala) (P25440 74-180 L110A limits assumed): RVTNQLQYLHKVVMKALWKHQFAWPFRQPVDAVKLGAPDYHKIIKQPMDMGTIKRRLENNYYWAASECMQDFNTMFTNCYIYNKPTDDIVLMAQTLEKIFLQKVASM
Sequence of Brd2(2)*(Leu383-Ala) (P25440 344-453 L383A limits assumed): as the sequence (P25440 344-453 limits assumed) above, with L40A counted along it
T7 sequence (Q15059 306-415 limits assumed): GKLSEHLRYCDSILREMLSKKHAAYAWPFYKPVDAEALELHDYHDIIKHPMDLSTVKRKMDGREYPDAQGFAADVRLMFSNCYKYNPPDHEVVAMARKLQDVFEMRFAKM
T8 sequence (Q15059 34-140 limits assumed): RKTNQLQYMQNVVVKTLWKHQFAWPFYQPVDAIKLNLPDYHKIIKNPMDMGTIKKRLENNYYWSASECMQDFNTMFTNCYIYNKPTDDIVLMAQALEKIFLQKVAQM
T9 sequence (Q15059 34-140 L70A limits assumed): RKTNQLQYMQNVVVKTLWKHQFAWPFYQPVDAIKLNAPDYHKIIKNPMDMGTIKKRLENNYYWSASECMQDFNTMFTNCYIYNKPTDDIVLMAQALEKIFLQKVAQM
T6 sequence (Q15059 306-415 L345A): as the sequence (Q15059 306-415 limits assumed) above, with L40A counted along it

COC(=O)[C@H](C)[C@@H]1N=C(c2ccc(Cl)cc2)c2cc(OC)ccc2-n2c(C)nnc21 (racemic) [Compound 7, (+−)-methyl (R)-2-((S)-6-(4-chlorophenyl)-8-methoxy-1-methyl-4H-benzo[f][1,2,4]triazolo[4,3-a][1,4]diazepin-4-yl)propanoate]
Thermal stabilisation brd2(1) (Brd2(1)): 3.2 ± 0.2 °C | ΔTm Brd2(1) (Brd2(1)): 3.2 ± 0.2 K | Thermal stabilisation brd2(1) (Brd2(1); listed as compound 7): 3.2 °C | ΔTm Brdt(2) (Brdt(2)): 3.7 ± 0.3 K | ΔTm Brdt(1) (Brdt(1)): 5.3 ± 0.3 K | ΔTm Brdt(2)* (L306A) (brdt(2)L306A): 7.9 ± 0.2 K | Thermal stabilisation brd2(2) (Brd2(2) [1]): 5.6 ± 0.1 °C | ΔTm Brd2(2) (Brd2(2) [1]): 5.6 ± 0.1 K | Thermal stabilisation brd2(2) (Brd2(2) [1]; listed as compound 7): 5.6 °C | ΔTm Brd3(2)* (L344A) (brd3(2)L344A): 15.6 ± 0.4 K | ΔTm Brd3(2) (Brd3(2)): 6.7 ± 1.0 K | ΔTm Brd3(1) (Brd3(1)): 5.9 ± 0.2 K | ΔH Brd2(2)* (Leu383-Ala) (Brd2(2)*(Leu383-Ala)): -12.61 ± 0.08606 kcal/mol | Kd (Brd2(2)*(Leu383-Ala)): 22 nM and 22.3 nM | Kd (Brd2(1)*(Leu110-Ala)): 17 nM | ΔH Brd2(1)* (Leu110-Ala) (Brd2(1)*(Leu110-Ala)): −16780 ± 161.4 cal/mol | ΔTm Brd3(1)* (L070A) (Brd3(1)* (L070A)): 10.8 ± 0.3 K | ΔTm Brdt(1)* (L063A) (brdt(1)L063A): 5.8 ± 0.3 K | ΔH Brd2(2) (Brd2(2) [2]): -5.36 ± 0.117 kcal/mol | Kd (Brd2(2) [2]): 300 nM and 298 nM

CC[C@@H](C(=O)OC)[C@@H]1N=C(c2ccc(Cl)cc2)c2cc(OC)ccc2-n2c(C)nnc21 (racemic) [Compound 11, (+−)-methyl (R)-2-((S)-6-(4-chlorophenyl)-8-methoxy-1-methyl-4H-benzo[f][1,2,4]triazolo[4,3-a][1,4]diazepin-4-yl)butanoate]
ΔTm Brd2(1) (Brd2(1)): 1.2 ± 0.2 K | ΔTm Brdt(2) (Brdt(2)): 1.3 ± 0.3 K | ΔTm Brdt(1) (Brdt(1)): 1.5 ± 0.4 K | ΔTm Brdt(2)* (L306A) (brdt(2)L306A): 6.7 ± 0.4 K | ΔTm Brd2(2) (Brd2(2) [1]): 1.6 ± 0.1 K | ΔTm Brd3(2)* (L344A) (brd3(2)L344A): 13.4 ± 0.6 K | ΔTm Brd3(2) (Brd3(2)): 2.6 ± 0.7 K | ΔTm Brd3(1) (Brd3(1)): 2.2 ± 0.1 K | ΔH Brd2(2)* (Leu383-Ala) (Brd2(2)*(Leu383-Ala)): -10.71 ± 0.1028 kcal/mol | Kd (Brd2(2)*(Leu383-Ala)): 21.7 ± 5.6 nM | Selectivity factor Kd WT/Kd Leu/Ala (Brd2(2)*(Leu383-Ala); brd2(2)L383A vs WT brd2(1)): 105 | Selectivity factor Kd WT/Kd Leu/Ala (Brd2(2)*(Leu383-Ala); brd2(2)L383A vs WT brd2(2)): 203 | Selectivity factor Kd WT/Kd Leu/Ala (Brd2(2)*(Leu383-Ala); brd2(2)L383A vs WT brd3(1)): 82 | Selectivity factor Kd WT/Kd Leu/Ala (Brd2(2)*(Leu383-Ala); brd2(2)L383A vs WT brd3(2)): 87 | Selectivity factor Kd WT/Kd Leu/Ala (Brd2(2)*(Leu383-Ala); brd2(2)L383A vs WT brd4(1)): 150 | Selectivity factor Kd WT/Kd Leu/Ala (Brd2(2)*(Leu383-Ala); brd2(2)L383A vs WT brd4(2)): 118 | Selectivity factor Kd WT/Kd Leu/Ala (Brd2(2)*(Leu383-Ala); brd2(2)L383A vs WT brdt(1)): 101 | Selectivity factor Kd WT/Kd Leu/Ala (Brd2(2)*(Leu383-Ala); brd2(2)L383A vs WT brdt(2)): 144 | Kd (Brd2(1)*(Leu110-Ala)): 42.7 ± 7.8 nM | ΔH Brd2(1)* (Leu110-Ala) (Brd2(1)*(Leu110-Ala)): −16220 ± 130.9 cal/mol | Selectivity factor Kd WT/Kd Leu/Ala (Brd2(1)*(Leu110-Ala); brd2(1)L110A vs WT brd2(1)): 123 | Selectivity factor Kd WT/Kd Leu/Ala (Brd2(1)*(Leu110-Ala); brd2(1)L110A vs WT brd2(2)): 236 | Selectivity factor Kd WT/Kd Leu/Ala (Brd2(1)*(Leu110-Ala); brd2(1)L110A vs WT brd3(1)): 96 | Selectivity factor Kd WT/Kd Leu/Ala (Brd2(1)*(Leu110-Ala); brd2(1)L110A vs WT brd3(2)): 101 | Selectivity factor Kd WT/Kd Leu/Ala (Brd2(1)*(Leu110-Ala); brd2(1)L110A vs WT brd4(1)): 174 | Selectivity factor Kd WT/Kd Leu/Ala (Brd2(1)*(Leu110-Ala); brd2(1)L110A vs WT brd4(2)): 138 | Selectivity factor Kd WT/Kd Leu/Ala (Brd2(1)*(Leu110-Ala); brd2(1)L110A vs WT brdt(1)): 117 | Selectivity factor Kd WT/Kd Leu/Ala (Brd2(1)*(Leu110-Ala); brd2(1)L110A vs WT brdt(2)): 167 | Selectivity against all other bromodomains (Brd2(1)*(Leu110-Ala); mutated Brd2(1) vs all other (wild type) bromodomains): ≥ 96 fold | ΔTm Brd3(1)* (L070A) (Brd3(1)* (L070A)): 10.4 ± 0.3 K | ΔTm Brdt(1)* (L063A) (brdt(1)L063A): 5.4 ± 0.3 K | ΔH Brd2(2) (Brd2(2) [2]): -3.601 ± 0.0852 kcal/mol | Kd (Brd2(2) [2]): 2200 ± 400 nM
